Here are results for 18 molecules from US20260042764A1, “COMPOSITIONS AND METHODS FOR INHIBITION OF KRAS” (TheRas, Inc., priority 2022, published 2026).

One experiment deals with SW620 cells (KRAS G12V). The experiment in a line: Cell-based pERK HTRF assay in SW620 cell (Biological Example 4). To be noted: Homo sapiens, SW-620, SW620 (KRAS G12V) cells, pERK HTRF; class symbols. A digest of the protocol: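 SW620 cells were treated for 4 h with compound in a 9-point half-log series from 1 μM top (0.25% DMSO), then lysed. Phospho-ERK was detected by HTRF with d2 and Eu cryptate antibodies after 4–24 h at room temperature, read at 615 nm emission.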
On the technique in general: Time-resolved FRET reads energy transfer from a long-lived donor to a nearby acceptor.

Experiment [1] deals with T1, Avi-KRAS G12V (1-169) GppNHp/RAF1 RBD-3xFLAG (52-151) (Homo sapiens, UniProt P01116, G12V).
T1 construct: Avi-KRAS G12V (1-169)
T1 sequence (P01116 1-169 isoform P01116-2 G12V): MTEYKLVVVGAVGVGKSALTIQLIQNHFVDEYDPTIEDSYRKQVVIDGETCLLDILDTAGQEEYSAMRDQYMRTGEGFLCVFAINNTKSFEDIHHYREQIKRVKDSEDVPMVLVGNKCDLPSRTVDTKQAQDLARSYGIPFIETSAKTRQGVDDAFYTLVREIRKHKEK
The experiment in a line: Raf1-KRAS G12V-GppNHP disruption HTRF assay (Biological Example 1). The experiment is classed as binding. The following applies: KRAS G12V, GppNHp-loaded; class symbols. A digest of the protocol:
(§1)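 Compounds were tested for disruption of KRAS–RAF1 RBD binding by HTRF in 50 mM Tris pH 7.5, 100 mM NaCl, 5 mM MgCl2, 0.1% BSA, 0.01% Tween, 10% DMSO. Protein mix was incubated 1 h at room temperature with shaking, then detection reagents added for another 1 h. Activity expressed as percent of DMSO control.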

Experiment [2] addresses T2, Avi-KRAS G12D (1-169) GppNHp/RAF1 RBD-3xFLAG (52-151) (Homo sapiens, UniProt P01116, G12D).
T2 construct: Avi-KRAS G12D (1-169)
The experiment in a line: Raf1-KRAS G12D-GppNHP disruption HTRF assay (Biological Example 1). The format is binding. The following applies: KRAS G12D, GppNHp-loaded; class symbols. An outline of the steps: as §1

The subject of another experiment is GP2d cells (KRAS G12D). The experiment in a line: Cell-based pERK HTRF assay in GP2d cell (Biological Example 2). To be noted: GP2d, GP2d (KRAS G12D) cells, pERK HTRF; class symbols. An outline of the steps: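 60 min compound, 0.25% DMSO, 9-pt half-log curve from 1 μM or 100 nM; DMEM/10% FBS.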
Experiment [3] addresses T3, Avi-KRAS WT (1-169) GppNHp/RAF1 RBD-3xFLAG (52-151) (Homo sapiens, UniProt P01116).
T3 construct: Avi-KRAS WT (1-169)
The experiment in a line: Raf1-KRAS WT-GppNHP disruption HTRF assay (Biological Example 1). The following applies: KRAS WT, GppNHp-loaded; class symbols. The experiment is classed as binding. A digest of the protocol: as §1

In experiment [4] the target is T4, Avi-KRAS G12R (1-169) GppNHp/RAF1 RBD-3xFLAG (52-151) (Homo sapiens, UniProt P01116, G12R).
T4 construct: Avi-KRAS G12R (1-169)
T4 sequence (P01116 1-169 isoform P01116-2 G12R): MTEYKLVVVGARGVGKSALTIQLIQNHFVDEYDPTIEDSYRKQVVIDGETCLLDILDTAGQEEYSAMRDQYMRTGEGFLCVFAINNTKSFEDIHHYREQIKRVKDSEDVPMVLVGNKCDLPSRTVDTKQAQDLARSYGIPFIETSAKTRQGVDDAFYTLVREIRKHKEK
Description: Raf1-KRAS G12R-GppNHP disruption HTRF assay (Biological Example 1). The experiment is classed as binding. To be noted: KRAS G12R, GppNHp-loaded; class symbols. An outline of the steps:
as §1

T2 sequence (P01116 1-169 isoform P01116-2 G12D): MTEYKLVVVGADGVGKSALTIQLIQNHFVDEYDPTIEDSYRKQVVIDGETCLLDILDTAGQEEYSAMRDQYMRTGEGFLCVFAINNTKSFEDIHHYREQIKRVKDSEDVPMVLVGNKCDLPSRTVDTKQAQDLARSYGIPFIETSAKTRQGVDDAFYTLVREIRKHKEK
T3 sequence (P01116 1-169 isoform P01116-2): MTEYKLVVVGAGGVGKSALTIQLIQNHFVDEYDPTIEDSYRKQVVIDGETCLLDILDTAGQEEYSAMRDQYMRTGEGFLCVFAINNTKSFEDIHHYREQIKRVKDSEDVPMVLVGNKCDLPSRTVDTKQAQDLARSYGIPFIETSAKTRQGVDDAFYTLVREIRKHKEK

Broadly, the IC50 is the concentration needed to halve the response being measured. A high value points to weaker potency. With `CCN(c1nc(OC[C@@]23CCCN2C[C@H](F)C3)nc2c(F)c(-c3ccc(F)c4sc(N)c(C#N)c34)c(C(F)(F)F)cc12)[C@H]1CCN(C(=O)N(C)C2CC2)C1` (atropisomer, axis not shown) [Compound 583], the IC50 (in the experiment on SW620 cells (KRAS G12V); in experiment [1]; in experiment [2]; in the experiment with GP2d cells (KRAS G12D); in experiment [3]; in experiment [4]) was < 100 nM in each case.

On to `CCN(c1nc(OC[C@@]23CCCN2C[C@H](F)C3)nc2c(F)c(-c3ccc(F)c4sc(N)c(C#N)c34)c(C(F)(F)F)cc12)[C@H]1CCN(C(=O)N(C)C(C)C)C1` (atropisomer, axis not shown) [Compound 585], for which the 50% inhibitory concentration (IC50) (in the experiment on SW620 cells (KRAS G12V); in experiment [1]; in experiment [2]; in the experiment on GP2d cells (KRAS G12D); in experiment [3]; in experiment [4]) was < 100 nM each time.

`CCN(c1nc(OC[C@@]23CCCN2C[C@H](F)C3)nc2c(F)c(-c3ccc(F)c4sc(N)c(C#N)c34)c(C(F)(F)F)cc12)[C@H]1CCN(C(=O)C(C)(F)F)C1` (atropisomer, axis not shown) [Compound 587]: the 50% inhibitory concentration (IC50) (in the experiment on SW620 cells (KRAS G12V); in experiment [1]; in experiment [2]; in the experiment on GP2d cells (KRAS G12D); in experiment [3]; in experiment [4]) was < 100 nM in each case.

On to `CCN(c1nc(OC[C@@]23CCCN2C[C@H](F)C3)nc2c(F)c(-c3ccc(F)c4sc(N)c(C#N)c34)c(C(F)(F)F)cc12)[C@@H]1C[C@H](C)N(C(=O)C2CC2)C1` (atropisomer, axis not shown) [Compound 588], for which the 50% inhibitory concentration (IC50) in the experiment on SW620 cells (KRAS G12V) is < 100 nM; in experiment [1], 100 to 1000 nM; in experiment [2] it was 100 to 1000 nM; in the experiment with GP2d cells (KRAS G12D), < 100 nM; in experiment [3] it was 100 to 1000 nM; in experiment [4], 100 to 1000 nM.

Regarding `CCN(c1nc(OC[C@@]23CCCN2C[C@H](F)C3)nc2c(F)c(-c3ccc(F)c4sc(N)c(C#N)c34)c(C(F)(F)F)cc12)[C@@H]1C[C@H](C)N(C(=O)COC)C1` (atropisomer, axis not shown) [Compound 589], the 50% inhibitory concentration (IC50) in the experiment on SW620 cells (KRAS G12V) was < 100 nM; in experiment [1], 100 to 1000 nM; in experiment [2] it was 100 to 1000 nM; in the experiment on GP2d cells (KRAS G12D) it was < 100 nM; in experiment [3] it was 100 to 1000 nM; in experiment [4] it was 100 to 1000 nM.

As for `CCN(c1nc(OC[C@@]23CCCN2C[C@H](F)C3)nc2c(F)c(-c3ccc(F)c4sc(N)c(C#N)c34)c(C(F)(F)F)cc12)[C@H]1CCN(C(C)=O)[C@@H]1C` (atropisomer, axis not shown) [Compound 591], the concentration for half-maximal inhibition (IC50) (with SW620 cells (KRAS G12V); in experiment [1]; in experiment [2]; in the experiment with GP2d cells (KRAS G12D); in experiment [3]; in experiment [4]) was < 100 nM each time.

For the molecule `CN(C)C(=O)c1nn2c(c1C(F)(F)F)CN(c1nc(OC[C@@]34CCCN3C[C@H](F)C4)nc3c(F)c(-c4ccc(F)c5sc(N)c(C#N)c45)c(C(F)(F)F)cc13)CC2` (atropisomer, axis not shown) [Compound 596], the IC50 in the experiment on SW620 cells (KRAS G12V) is < 100 nM; in experiment [1], 100 to 1000 nM; in experiment [2], < 100 nM; in the experiment with GP2d cells (KRAS G12D), < 100 nM; in experiment [3], 100 to 1000 nM; in experiment [4], 100 to 1000 nM.

For the molecule `CCN(c1nc(OC[C@@]23CCCN2C[C@H](F)C3)nc2c(F)c(-c3ccc(F)c4sc(N)c(C#N)c34)c(C(F)(F)F)cc12)[C@@H]1C[C@@H](C)N(C(=O)COC)C1` (atropisomer, axis not shown) [Compound 597], the IC50 is < 100 nM in the experiment with SW620 cells (KRAS G12V); 100 to 1000 nM in experiment [1]; 100 to 1000 nM in experiment [2]; < 100 nM with GP2d cells (KRAS G12D); < 100 nM in experiment [3]; 100 to 1000 nM in experiment [4].

As for `CCN(c1nc(OC[C@@]23CCCN2C[C@H](F)C3)nc2c(F)c(-c3ccc(F)c4sc(N)c(C#N)c34)c(C(F)(F)F)cc12)[C@H]1CCN(C(=O)N(C)C2COC2)C1` (atropisomer, axis not shown) [Compound 598], the IC50 (with SW620 cells (KRAS G12V); in experiment [1]; in experiment [2]; with GP2d cells (KRAS G12D); in experiment [3]; in experiment [4]) was < 100 nM each time.

With `CCN(c1nc(OC[C@@]23CCCN2C[C@H](F)C3)nc2c(F)c(-c3ccc(F)c4sc(N)c(C#N)c34)c(C(F)(F)F)cc12)[C@H]1CCN(C(=O)OC2CC2)C1` (atropisomer, axis not shown) [Compound 599], the IC50 (in the experiment with SW620 cells (KRAS G12V); in experiment [1]; in experiment [2]; in the experiment on GP2d cells (KRAS G12D); in experiment [3]; in experiment [4]) was < 100 nM throughout.

Consider `C[C@@H](c1cccnc1N)N(C)c1nc(OC[C@@]23CCCN2C[C@H](F)C3)nc2c(F)c(-c3ccc(F)c4sc(N)c(C#N)c34)c(C(F)(F)F)cc12` (atropisomer, axis not shown) [Compound 601], for which the half-inhibitory concentration (IC50) in the experiment with SW620 cells (KRAS G12V) is < 100 nM; in experiment [1], 100 to 1000 nM; in experiment [2], 100 to 1000 nM; in the experiment with GP2d cells (KRAS G12D) it was < 100 nM; in experiment [3], 100 to 1000 nM; in experiment [4], 100 to 1000 nM.

As to `N#Cc1c(N)sc2c(F)ccc(-c3c(C(F)(F)F)cc4c(N(Cc5cccnc5N)C5CC5)nc(OC[C@@]56CCCN5C[C@H](F)C6)nc4c3F)c12` (atropisomer, axis not shown) [Compound 602], the IC50 in the experiment on SW620 cells (KRAS G12V) is < 100 nM; in experiment [1] it was 1000 to 10000 nM; in experiment [2], 1000 to 10000 nM; in the experiment on GP2d cells (KRAS G12D) it was < 100 nM; in experiment [3], 1000 to 10000 nM; in experiment [4], 1000 to 10000 nM.

For the molecule `CCN(c1nc(OC[C@@]23CCCN2C[C@H](F)C3)nc2c(F)c(-c3ccc(F)c4sc(N)c(C#N)c34)c(C(F)(F)F)cc12)[C@H]1CCN(C(=O)N2C[C@@H](F)[C@@H](F)C2)C1` (atropisomer, axis not shown) [Compound 609], the 50% inhibitory concentration (IC50) (in the experiment on SW620 cells (KRAS G12V); in experiment [1]; in experiment [2]; in the experiment with GP2d cells (KRAS G12D); in experiment [3]; in experiment [4]) was < 100 nM throughout.

Regarding `CCN(c1nc(OC[C@@]23CCCN2C[C@H](F)C3)nc2c(F)c(-c3ccc(F)c4sc(N)c(C#N)c34)c(C(F)(F)F)cc12)[C@@H]1CC(=O)N(CC(F)F)C1` (atropisomer, axis not shown) [Compound 612], the IC50 (in the experiment with SW620 cells (KRAS G12V); in experiment [1]; in experiment [2]; in the experiment with GP2d cells (KRAS G12D); in experiment [3]; in experiment [4]) was < 100 nM throughout.

For the molecule `CN(c1nc(OC[C@@]23CCCN2C[C@H](F)C3)nc2c(F)c(-c3ccc(F)c4sc(N)c(C#N)c34)c(C(F)(F)F)cc12)[C@H]1CC(=O)N(C2CC2)C1` (atropisomer, axis not shown) [Compound 616], the IC50 (in the experiment with SW620 cells (KRAS G12V); in experiment [1]; in experiment [2]; with GP2d cells (KRAS G12D); in experiment [3]; in experiment [4]) was < 100 nM each time.

Regarding `CCN(c1nc(OC[C@@]23CCCN2C[C@H](F)C3)nc2c(F)c(-c3ccc(F)c4sc(N)c(C#N)c34)c(C(F)(F)F)cc12)[C@H]1CCN(C(=O)OCC2CC2)C1` (atropisomer, axis not shown) [Compound 620], the IC50 with SW620 cells (KRAS G12V) was < 100 nM; in experiment [1], < 100 nM; in experiment [2], < 100 nM; with GP2d cells (KRAS G12D) it was < 100 nM; in experiment [3], 100 to 1000 nM; in experiment [4], < 100 nM.

For the molecule `Cc1nnn2c1CN(c1nc(OC[C@@]34CCCN3C[C@H](F)C4)nc3c(F)c(-c4ccc(F)c5sc(N)c(C#N)c45)c(C(F)(F)F)cc13)[C@@H](C)C2` (atropisomer, axis not shown) [Compound 624], the concentration for half-maximal inhibition (IC50) in the experiment on SW620 cells (KRAS G12V) is < 100 nM; in experiment [1], 100 to 1000 nM; in experiment [2] it was 100 to 1000 nM; in the experiment with GP2d cells (KRAS G12D), < 100 nM; in experiment [3] it was 100 to 1000 nM; in experiment [4], 100 to 1000 nM.

Consider `C[C@H]1Cn2nnc(C#N)c2CN1c1nc(OC[C@@]23CCCN2C[C@H](F)C3)nc2c(F)c(-c3ccc(F)c4sc(N)c(C#N)c34)c(C(F)(F)F)cc12` (atropisomer, axis not shown) [Compound 625], for which the IC50 in the experiment on SW620 cells (KRAS G12V) was < 100 nM; in experiment [1], 1000 to 10000 nM; in experiment [2], 100 to 1000 nM; in the experiment on GP2d cells (KRAS G12D), < 100 nM; in experiment [3], 1000 to 10000 nM; in experiment [4], 1000 to 10000 nM.
